# Source: patent US9994576B2, “Substituted pyrazolo[3,4-d]pyrimidines as kinase inhibitors” (PRINCIPIA BIOPHARMA INC., priority 2012, dated 2018)
# Target: protein target (Homo sapiens (Human), UniProt Q06187)
# Assay: Reversibility of binding (compound in solution before/after denaturation or digestion of target, HPLC-MS/MS)
# Settings: native (folded) target in excess over compound
# Procedure: The following approach was developed to differentiate compounds that form irreversible covalent bond with their targets, such as non-cyano containing acrylamide compounds, from compound that form reversible covalent bond i.e., compounds and/or pharmaceutically acceptable salts of the present disclosure. […] The reactions were then treated with perturbations including both denaturation with 5 M guanidine hydrochloride and digestion with trypsin, disrupting proper folding of the target. […] The concentration of compound in solution was assessed both preceding and following perturbation using high performance liquid chromatography (HPLC) coupled to tandem mass spectrometry.
# Sequence of protein target (Q06187 whole entry): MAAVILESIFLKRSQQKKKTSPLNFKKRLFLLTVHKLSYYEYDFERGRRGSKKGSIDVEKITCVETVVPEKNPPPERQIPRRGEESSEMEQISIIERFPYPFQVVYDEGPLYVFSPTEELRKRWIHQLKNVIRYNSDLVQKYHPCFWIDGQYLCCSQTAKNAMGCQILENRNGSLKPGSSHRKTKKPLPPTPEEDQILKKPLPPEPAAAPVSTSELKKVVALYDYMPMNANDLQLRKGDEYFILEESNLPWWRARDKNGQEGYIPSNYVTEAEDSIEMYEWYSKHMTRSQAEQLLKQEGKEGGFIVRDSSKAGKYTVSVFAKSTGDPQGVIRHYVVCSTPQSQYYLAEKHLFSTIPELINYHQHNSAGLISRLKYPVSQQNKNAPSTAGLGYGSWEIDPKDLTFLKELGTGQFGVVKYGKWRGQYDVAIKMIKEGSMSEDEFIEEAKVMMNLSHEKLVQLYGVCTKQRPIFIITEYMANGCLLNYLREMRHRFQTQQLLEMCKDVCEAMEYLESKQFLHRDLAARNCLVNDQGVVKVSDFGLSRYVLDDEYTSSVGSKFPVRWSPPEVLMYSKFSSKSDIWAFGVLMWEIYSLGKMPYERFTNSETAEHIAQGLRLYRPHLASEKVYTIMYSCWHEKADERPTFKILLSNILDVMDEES
compound,measurement,value
"CN(C1COC1)C(C)(C)C=C(C#N)C(=O)N1CCC[C@H]1Cn1nc(-c2ccc(Oc3ccccc3)cc2F)c2c(N)ncnc21 [Example 10, 2-[(2S)-2-[[4-amino-3-(2-fluoro-4-phenoxy-phenyl)pyrazolo[3,4-d]pyrimidin-1-yl]methyl]pyrrolidine-1-carbonyl]-4-methyl-4-[methyl(oxetan-3-yl)amino]pent-2-enenitrile]",Compound in solution in the native state?,no
